Laboratory results as given in patent publication US6730775B1, “Methods for limiting scar and adhesion formation” (University of Southern California, priority 1999, dated 2004).
Entries after “also recorded” stand apart in the source; their conditions may differ. Where no end group is shown, it is not given here. [ ]: non-standard residue; d: D form. Nle = CCCC[C@H](N)C(=O)O

Experiments:
[1] = system: full thickness incision wounds; test: Rat full thickness incision model (Example 2); format: in vivo, Sprague Dawley rats; conditions: for early inflammation and wound dehiscence / number of incisions that were free of scar / overall scar formation: into the subcutaneous space prior to closure with DermaBond; for early inflammation and wound dehiscence: FIG. 1, day 5; for number of incisions that were free of scar: later time points after healing, FIG. 2, days 14, 19, 21; for overall scar formation: later time points, FIG. 3, scar score rank days 14 and 19; for healing time / number of incisions with no scar by gross observations: repeated; for healing time: systemic administration (especially pretreatment with 100 μg/kg body weight/day of 9GD), FIGS. 4-6; for number of incisions with no scar by gross observations: systemic administration, FIGS. 7-9, days 14 and 21
Procedure: This study was designed to compare the effect of a daily administration of AII(1-7) and 9GD on the healing of full thickness incision wounds in a rat model. For topical administration, the viscous vehicle was prepared from carboxymethylcellulose (CMC sodium salt, low viscosity, Sigma Chemical CO., St. Louis, Mo. (Lot number 34H0310)), consisting of 10% low viscosity CMC in 0.05 M phosphate buffer, pH 7.2, and was sterilized by autoclaving followed by mixing with sterile peptide solutions or DermaBond (provided by Ethicon, Inc.), AII(1-7) and 9GD were prepared by Bachem (Torrence, Calif.) under GMP conditions.
During the experimental period, Sprague Dawley rats (5 per group) were used in this study. The rats were housed one per cage in the University of Southern California vivarium on a 12:12 hour light/dark cycle. Food and water were available ad libitum.
On the dorsal surface of the rats, two full thickness incisions (approximately 3 cm in length) were made on a prepared surface under aseptic conditions. After injury, placebo or AII(1-7) (100 μg/wound [topical], or 100 μg/kg body weight [systemic]) or 9GD (10, 100, or 500 μg/wound [topical], or 10, 100, or 500 μg/kg body weight [systemic]) was administered. The wound was sutured closed (if the peptide was not given in an adhesive base) or was closed with […] (in groups that have the peptide administered with cyanoacrylate (DermaBond™)).
The animals were monitored for breathing, urination, and movement during the postoperative interval. Postoperative analgesic included twice daily administration of bupronex for 3 days post-operation. […] On day 21, the rats were euthanized by CO2 asphyxiation and tissues were harvested for histologic preparation.
Scar formation was assessed grossly, including assessment of inflammationh, dehiscence, scabbing, healing (defined as % of incision healed), and scarring. Inflammation, dehiscence, scabbing, and scarring were assessed on a 4 point scale (0, 1, 2, or 3) for none, mild, moderate, and severe, respectively. The severity of the scar was defined by the appearance of disruption, the contour of the healing site, the raising of the healing area, and the ability to note by gross observation that the wound had been made.

[2] = system: wound tissue; conditions: application to wound tissue; cited from earlier work
[3] = system: primary human keratinocytes; conditions: via a non-AT1, non-AT2 receptor; cited from earlier work
[4] = system: rabbit corneal eye; conditions: rabbit corneal eye model; cited from earlier work
[5] = system: cultured cells that are involved in wound repair; conditions: cited from earlier work
[6] = system: chick chorioallantoic membrane; conditions: chick chorioallantoic membrane model; cited from earlier work
[7] = system: 2 cm midline laparotomy incision; test: Anti-scarring effect after rat laparotomy (Example 1); format: in vivo, Sprague Dawley rats; conditions: 100 μg/kg/day subcutaneously, 3 days prior to surgery and 11 days until necropsy; 11 day post-operative observation
Procedure: Female Sprague Dawley rats, weighing between 175 and 225 grams each, were used in this study. The rats were quarantined at least two days prior to surgery. The rats were housed in the University of Southern California vivarium on a 12:12 hour light/dark cycle. Food and water were available ad libitum except in the immediate postoperative period.
The rats underwent a standardized procedure for laparotomy (intramuscular anesthesia with ketamine/rompum, shaving with animal clippers, betadine scrub, alcohol scrub). A 2 cm incision was then made on the midline. A double-walled gelatin capsule was placed on the right side of the abdomen through the incision. The animals were subcutaneously injected with the peptides (detailed below) (100 μg/kg/day) for 3 days prior to surgery, and then for 11 days until necropsy. The abdominal wall and skin was then sutured closed using two layers of 4-0 Ethilon suture. Following surgery, the rats received analgesic for three days and were observed twice daily for signs of morbidity and mortality.

[8] = Unspecified test of effectiveness of AII fragments; conditions: test not specified
[9] = single dose in CMC in the subcutaneous space, FIG. 10
[10] = single dose in CMC in the subcutaneous space, FIG. 11

Substance	early inflammation and wound dehiscence [1]	number of incisions that were free of scar [1]	overall scar formation [1]	healing time [1]	number of incisions with no scar by gross observations [1]	healing [1, 9]	scar formation [1, 10]	healing ([1]; single dose, systemic)	scar formation ([1]; single dose, systemic)	scar apparent upon gross observation [7]	wound closure [7]	effectiveness [8]	other results
Asp-Arg-Val-Tyr-Ile-His-Pro (DRVYIHP) [AII(1-7)]	reduced	increased	increased	accelerated	increased	accelerated healing	reduced scar formation	did not accelerate healing	did reduce scar formation				
Asp-Arg-Val-Tyr-Ile-His-Pro-Phe [AII]													rate of wound healing [2]: significantly increases; proliferation of primary human keratinocytes [3]: stimulate proliferation; angiogenic [4]: angiogenic; mitogenesis and chemotaxis [5]: increases; release of growth factors and extracellular matrices [5]: increases; angiogenic [6]: angiogenic
DR(nor)YIHP (DR[Nle]YIHP) [9GD]	reduced	increased	increased	accelerated	increased	accelerated healing	reduced scar formation	did not accelerate healing	did reduce scar formation	no scar was apparent	complete		
DRKYIHP [5GD]										no scar was apparent	complete		
His-Pro-Phe (HPF) [AII(6-8)]												not to be effective	
Tyr-Ile-His-Pro-Phe (YIHPF) [AII(4-8)]												not to be effective; also recorded: ineffective	
